Laboratory results from patent publication US20220226270A1, “VERY-LONG-CHAIN POLYUNSATURATED FATTY ACIDS, ELOVANOID HYDROXYLATED DERIVATIVES, AND METHODS OF USE” (Board of Supervisors of Louisiana State University and …, priority 2019, published 2022).

Experiments:
[1] = test system: mice sub-retinally injected with OAβ; assay: Oligomeric Aβ (OAβ)-induced RPE senescence and retinal degeneration, sub-retinal injection; assay type: in vivo, mouse; details: 200 ng co-injected with 10 μM OAβ, 2 μl sub-retinal
Source text: As shown in FIGS. 14A-14C, elovanoids (ELV) counteract AR peptide-induced retinal pigment epithelial cell senescence progression. Aβ42, an end product of the amyloidogenic pathway, is a component of drusen in age-related macular degeneration (AMD), and of senile plaques in Alzheimer's disease (AD). To mimic the effect of OAβ in vivo, 6-month-old mice were used and sub-retinally injected with OAβ alone, OAβ+ELVs and ELVs alone. The no injection mice were used as negative control while the PBS injected mice were used as the sham. The injection volume was 2 μl containing of PBS, 10 μM of OAβ, 10 μM of OAβ+200 ng ELV-32, 200 ng ELV-32 alone, 10 μM of OAβ+200 ng ELV-34 or 200 ng ELV-34 alone. At day 3 after injection, mRNA from eyecup was isolated and analyzed the gene expression using q-PCR. Then, at day 7, the mice were subjected to Optical Coherence Tomography (OCT) analysis and then the eyes were enucleated and processed for histology, whole mount RPE staining, and western blotting (WB). OCT and histology uncovers that in OAβ induced retinal degeneration, the thickness of retina was thinner in OAβ injected group when compared to the controls as well as ELVs treatment groups.

[2] = test system: cerebral cortical mixed neuronal cells; assay: NMDA excitotoxicity in cerebral cortical mixed neuronal cultures; assay type: cell-based, rat; details: for NMDA-induced neuronal death: NMDA 25, 50 or 100 μM for 12 h, ELV (Na or Me) 200 nM or 500 nM added simultaneously
Source text: Primary cultures of cortical neurons: Primary cultures of cortical and hippocampal neurons were harvested from 18-day-old embryos (E18) taken from timed-pregnant, two-month-old Sprague-Dawley (SD) rats (Charles River Lab., Wilmington, Mass.). Briefly, timed-pregnant SD rats were euthanized and embryos were collected in sterile conditions. Embryonic brains were dissected out by forceps on ice and placed in a petri dish containing ice-cold Hank's Balanced Salt Solution (HBSS) (GIBCO). Meninges were removed under a dissecting microscope and cortical tissues were chopped into small pieces with micro-spring scissors. These tissues were transferred to 15 ml tubes containing trypsin-EDTA (0.025% in HBSS) and DNase I. The tubes were incubated in 37° C. chamber for 15 mins and were agitated every 5 mins. After stopping the trypsinization with 5 ml 10% FBS, these tissues were triturated 15 times with a fire polished Pasteur pipet. Cell clumps were left to settle for 2 mins and the supernatant was transferred to a 15 ml Eppendorf tube. The supernatant was filtered through a 70 μm pore-sized filter (Corning cell strainer) and centrifuged for 5 mins at 1000 rpm. The cells were then resuspended in Neurobasal medium (GIBCO) containing 2% B27 (GIBCO) and 2% N2 (GIBCO) supplements, along with 0.5 mM glutamine, 50 U/ml penicillin/streptomycin.
Cells were counted using a Neubauer hemocytometer. 1×10^6 cells were seeded on poly-D-lysine-coated 12 well cell culture dish (CORNING) and cultured in incubator (37° C., 5% CO2). Culture medium was first replaced after 24 h, then half of the medium was replaced with fresh medium every three days. As a result, approximately, 90% purity of neurons was obtained as determined by class-III-β tubulin, GFAP and Hoechst 33258 staining. Cells were maintained in culture for about 2 weeks until they were exposed to uncompensated oxidative stress, OGD, or NMDA excitotoxicity.
After 90 mins of OGD exposure, cells were returned to the original medium (Neurobasal medium (GIBCO) containing 2% B27 (GIBCO) and 2% N2 (GIBCO) supplements, along with 0.5 mM glutamine, 50 U/ml penicillin/streptomycin) and placed in a normoxic chamber (37° C., 5% CO2) for 2 h. Then the medium was changed with medium containing either ELV-N32 or ELV-N34 [500 nM] and maintained in a normoxic chamber (37° C., 5% CO2) for 12 h, after which cells were sampled and assayed for cell viability using different methods as previously described (25-28). Cerebral cortical mixed neuronal cells or hippocampal cells in culture were exposed to either NMDA or uncompensated oxidative stress (UOS) for 12 h by addition of either NMDA (25 μM, 50 μM, or 100 μM) concentration or by the addition of TNFα (10 ng/mL) and H2O2 (50 μM, 100 μM, or 200 μM). Cell viability and neuroprotection in the presence of ELV-N32, ELV-N34, 32:6, or 34:6 were assayed after 12 h.
Hoechst staining and unbiased image analysis: Cells were washed with 1× Dulbecco's Phosphate Buffered Saline (DPBS) containing no calcium or magnesium (GIBCO) and fixed for 10 mins using ice-cold 4% paraformaldehyde (PFA) followed by 15 mins incubation in 100% methanol. Cells were washed with 1× Phosphate Buffered Saline (PBS) pH 7.4 (GIBCO) and incubated in PBS containing 20 μM Hoechst 33258 (Molecular Probes) for 20 mins. Cells were then washed 3 times with 1× PBS and stored in 1× PBS at 4° C. until they were imaged for microscopy.
One 4×4 tile mosaic was acquired from the center of each well using a Zeiss 510 Meta laser confocal microscope and LSM 510 Meta software. Images were imported into image analysis software ImageJ (National Institutes of Health, Bethesda, Md.) and batch processed using custom macros. An Otsu auto threshold was applied to each image of Hoechst-stained nuclei, and the area of each detected object was recorded. Objects with areas <10 μm^2 were excluded from analysis. To estimate percentage non-pyknotic nuclei, a size cutoff value was chosen above which objects were assumed to be non-pyknotic. […]

ARPE-19 cells under UOS = assay: Western blot of pro-survival and pro-apoptotic proteins in ARPE-19 cells under UOS; assay type: cell-based, human; details: for Bax protein / Bid protein / Bim protein: Western blot, UOS; for Prohibitin (type-1) expression (ELV): sodium salts and methyl ester forms, concentration-dependent, 100-200 nM; for effect of 15-LOX-1 inhibitor on VLC-PUFA-induced Iduna expression: FIG. 7D
Experimental: (§1) ARPE19 cells at 75-80% confluence (72 h growth in DMEM/F12+10% FBS) in 6-well plates were serum-starved for 8 h before exposure. The serum-starved cells were treated with TNF-α (Sigma-Aldrich, St. Louis, Mo.) (10 ng/ml) and H2O2 (600 μM) to induce oxidative stress and challenged with increasing concentrations (50-500 nM) of VLC-PUFA (C32:6n3 and C34:6n3) simultaneously with oxidative stress for 16 h (apoptosis) and 6 h (Western-blot) before detection of apoptosis and harvesting for protein analysis. In some experiments, DHA at a concentration of 100 nM and 15-LOX-1 inhibitor PD146176 at a concentration of 1 μM was added to treat the RPE cells under stress. Cell extracts were made and protein concentrations adjusted by Bio-Rad (Hercules, Calif.) protein reagent and used for Western blot analysis.
Analysis of Proteins: Bcl-2 family proteins, SIRT1 and Proinhibitin (type-1), and Iduna proteins were analyze by Western blot analysis. In brief, 20-25 μg equivalents of each cell extracts were subject to electrophoresis on a 4-12% gel (Promega) at 125 V for 2 h. The proteins were transferred to nitrocellulose membrane by I-blot transfer apparatus. The membranes were subjected to treatment with primary antibodies specific for Bcl-2, Bcl-xL, Bax, Bid, Bim, SIRT1 and Prohibitin (type-1) (Santa Cruz Biotechnology) and Iduna antibody (Neuro-Mab Lab, UCLA, Los Angeles, Calif.) overnight at 4° C. and probed for 45 mins with secondary antibody, goat anti-mouse Ig:horseradish peroxidase, and horseradish peroxidase-conjugated anti-biotin antibody, and then proteins were evaluated by using an ECL kit (Amersham).

primary human RPE cells = assay: UOS-induced cell death in primary human RPE cells (Hoechst staining); assay type: cell-based; details: UOS with H2O2 (800 μM), 16 h; VLC-PUFAs 3 μM each, NPD1 200 nM; UOS alone 50% cell death
Experimental: Exposure of RPE cells to UOS and VLC-PUFA: For cell viability assay experiments hRPE cells were treated concomitantly with NPD1 (200 nM), 32-6, 34-6 (3 μM each) fatty acids or both 32-6 and 34-6 simultaneously. The hRPE medium was supplemented with 3 μM of 32-6 and 34-6 for the entire duration of the experiment. 15 lox-1 inhibitor (10 μM) was added to the cells 1 hour prior the OS induction and kept throughout the experiment. Cells were fixed with 4% PFA and stained with Hoescht.
(§2) To assess cell death, hRPE and ARPE-19 cells were fixed with methanol for 15 mins, washed with 1× PBS then loaded with 2 μM Hoechst dissolved in a Locke's solution (Promega) and incubated for another 15 mins before imaging. Cells were then viewed by using a Zeiss LSM 510 confocal microscope under UV fluorescence. Images were recorded and cell apoptosis was assessed by using an automated unbiased method.
To test the efficacy of 32:6n3 and 34:6n3 VLC-PUFAs to modulate human RPE cell homeostasis and survival rates, human RPE cells undergoing UOS were incubated with both VLC-PUFAs (3 μM each) and NPD1 (200 nM) 16 h. The addition of H2O2 (800 μM) induced apoptosis (50% cell death).
hRPE cells, formerly serum deprived for 12 h, were incubated with the 15 lipoxygenase 1 (15-LOX-1) inhibitor (PD146176) (10 μM for 1 h), then bathed with 600 μM H2O2/TNF-α in conjunction with a mixture of 32:6n3 and 34:6n3 (3 μM each) for 16 h. The 15-LOX-1 inhibitor sensitizes cells; therefore, a lower concentration of H2O2 than in the cytoprotection experiment was used.

ARPE-19 cells = assay: UOS-induced apoptosis in ARPE-19 cells (Hoechst-positive pyknotic cells); assay type: cell-based, human; details: inhibitor 1 μM, RPE cells undergoing UOS
Experimental: as §1, §2

Compound	protection of RPE and retina from OAβ induced senescence [1]	NMDA-induced neuronal death [2]	Bax protein (ARPE-19 cells under UOS)	Bid protein (ARPE-19 cells under UOS)	Bim protein (ARPE-19 cells under UOS)	Prohibitin (type-1) expression (ELV) (ARPE-19 cells under UOS)	other results
CC/C=C\C[C@H](O)\C=C/C=C/C=C/[C@H](O)C/C=C\C/C=C\CCCCCCCCCCCCC(=O)O [ELV-N32, (14Z,17Z,20R,21E,23E,25Z,27S,29Z)-20,27-dihydroxydo-triaconta-14,17,21,23,25,29-hexaenoic acid]	protect RPE and retina	compensated for	decreased	decreased	decreased	upregulated	–
CC/C=C\C[C@H](O)\C=C/C=C/C=C/[C@H](O)C/C=C\C/C=C\CCCCCCCCCCCCCCC(=O)O [ELV-N34, (16Z,19Z,22R,23E,25E,27Z, 29S,31Z)-22,29-dihydroxytetra-triaconta-16,19,23,25,27,31-hexaenoic acid]	protect RPE and retina	compensated for	decreased	decreased	decreased	upregulated	–
CC/C=C\C[C@H](O)\C=C/C=C/C=C/[C@H](O)C/C=C\C/C=C\CCC(=O)O [NPD1, 10R,17S-dihydroxy-docosa-4Z,7Z,11E,13E,15Z,19Z-hexaenoic acid, reference compound]	–	–	–	–	–	–	cell death (apoptosis) (primary human RPE cells): 11%
c1ccc2c(c1)SCc1c-2[nH]c2ccccc12 [PD146176, reference compound]	–	–	–	–	–	–	effect of 15-LOX-1 inhibitor on ELV-mediated inhibition of apoptosis (ARPE-19 cells): compensate for ELV-mediated inhibition of apoptosis; SIRT1 expression with VLC-PUFA in the presence of 15-LOX-1 inhibitor (ARPE-19 cells under UOS; FIG. 7C): augmented; effect of 15-LOX-1 inhibitor on VLC-PUFA-induced Iduna expression (ARPE-19 cells under UOS): attenuates; effect of 15-LOX-1 inhibitor on VLC-PUFA-induced Iduna expression (ARPE-19 cells under UOS; listed as 15-LOX-1 inhibitor): unaffected; effect of 15-LOX-1 inhibitor on ELV-induced protein upregulation (Iduna) (ARPE-19 cells under UOS; inhibitor 1 μM): blocked these effects
MK801 maleate [reference compound]	–	–	–	–	–	–	NMDA excitotoxicity ([2]; 10 μM antagonist): overcome
